Source: PubChem BioAssay AID256 (DTP/NCI, 2004)
Values joined by “and” are separate entries in the source; they are usually repeats but may differ in a detail not shown here. Identical values can stand only once. Inconclusive results and toxic doses are left out.

Test system: CD2F1 mice, L1210 leukemia ip, survival T/C
Test: NCI In Vivo Anticancer Drug Screen. Data for tumor model L1210 Leukemia (intraperitoneal) in CD2F1 (CDF1) mice
Conditions: higher = longer survival
How it was run: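 Transplantable tumor in mice; compound-treated vs vehicle-treated groups. Read-out = treated/control ratio of the measured endpoint.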

[1] = endpoint: mean survival time, dose: 100.0 mg/kg/injection, schedule: Q01DX001 (ip), vehicle: saline
[2] = endpoint: mean survival time, dose: 200.0 mg/kg/injection, schedule: Q01DX001 (ip), vehicle: saline
[3] = endpoint: mean survival time, dose: 400.0 mg/kg/injection, schedule: Q01DX001 (ip), vehicle: saline
[4] = endpoint: mean survival time, dose: 75.0 mg/kg/injection, schedule: Q01DX001 (ip), vehicle: saline
[5] = endpoint: mean survival time, dose: 100.0 mg/kg/injection, schedule: Q04DX003 (ip), vehicle: saline with Tween-80
[6] = endpoint: mean survival time, dose: 200.0 mg/kg/injection, schedule: Q04DX003 (ip), vehicle: saline with Tween-80
[7] = endpoint: mean survival time, dose: 400.0 mg/kg/injection, schedule: Q04DX003 (ip), vehicle: saline with Tween-80
[8] = endpoint: mean survival time, dose: 100.0 mg/kg/injection, schedule: Q04DX003 (ip), vehicle: saline
[9] = endpoint: mean survival time, dose: 100.0 mg/kg/injection, schedule: Q01DX001 (ip), vehicle: saline with Tween-80
[10] = endpoint: mean survival time, dose: 200.0 mg/kg/injection, schedule: Q01DX001 (ip), vehicle: saline with Tween-80
[11] = endpoint: mean survival time, dose: 400.0 mg/kg/injection, schedule: Q01DX001 (ip), vehicle: saline with Tween-80

## CC(NNC(=S)N(C)C1CCCCC1)c1cc2ccccc2cn1 (stereo unspecified)
endpoint: median survival time, dose: 12.5 mg/kg/injection, schedule: Q01DX005 (ip), vehicle: saline with Tween-80
  T/C: 103 % of control
endpoint: median survival time, dose: 12.5 mg/kg/injection, schedule: Q01DX005 (ip), vehicle: saline
  T/C: 97 % of control
endpoint: median survival time, dose: 25.0 mg/kg/injection, schedule: Q01DX005 (ip), vehicle: saline with Tween-80
  T/C: 120 % of control
endpoint: median survival time, dose: 25.0 mg/kg/injection, schedule: Q01DX005 (ip), vehicle: saline
  T/C: 102 % of control and 109 % of control
endpoint: median survival time, dose: 50.0 mg/kg/injection, schedule: Q01DX005 (ip), vehicle: saline with Tween-80
  T/C: 90 % of control
endpoint: median survival time, dose: 50.0 mg/kg/injection, schedule: Q01DX005 (ip), vehicle: saline
  T/C: 113 % of control and 114 % of control

## CCCN(CCC)S(=O)(=O)c1ccc(NC(=O)Oc2ccccc2OC)cc1
[1]
  T/C: 95 % of control
[2]
  T/C: 91 % of control
[3]
  T/C: 91 % of control

## CCC(=O)OC1=CC(=O)c2ccccc2C1=O
[4]
  T/C: 101 % of control
endpoint: mean survival time, dose: 150.0 mg/kg/injection, schedule: Q01DX001 (ip), vehicle: saline
  T/C: 105 % of control

## Cc1c(Cl)c(C)c(Cl)c(O)c1Cl
endpoint: mean survival time, dose: 100.0 mg/kg/injection, schedule: Q01DX009 (ip), vehicle: saline with Tween-80
  T/C: 96 % of control
endpoint: mean survival time, dose: 200.0 mg/kg/injection, schedule: Q01DX009 (ip), vehicle: saline with Tween-80
  T/C: 100 % of control
endpoint: mean survival time, dose: 400.0 mg/kg/injection, schedule: Q01DX009 (ip), vehicle: saline with Tween-80
  T/C: 87 % of control

## Cc1c[nH]c(=O)n(CC(=O)C2CCC3C4CCC5=CC(=O)CCC5(C)C4CCC23C)c1=O (stereo unspecified)
endpoint: mean survival time, dose: 12.5 mg/kg/injection, schedule: Q04DX003 (ip), vehicle: Klucel (hydroxypropylcellulose) (HPC)
  T/C: 95 % of control
endpoint: mean survival time, dose: 25.0 mg/kg/injection, schedule: Q04DX003 (ip), vehicle: Klucel (hydroxypropylcellulose) (HPC)
  T/C: 95 % of control
endpoint: mean survival time, dose: 50.0 mg/kg/injection, schedule: Q04DX003 (ip), vehicle: Klucel (hydroxypropylcellulose) (HPC)
  T/C: 97 % of control
endpoint: mean survival time, dose: 100.0 mg/kg/injection, schedule: Q04DX003 (ip), vehicle: Klucel (hydroxypropylcellulose) (HPC)
  T/C: 98 % of control
endpoint: mean survival time, dose: 200.0 mg/kg/injection, schedule: Q04DX003 (ip), vehicle: Klucel (hydroxypropylcellulose) (HPC)
  T/C: 98 % of control

## COc1c(NS(=O)(=O)c2ccccc2)cc2c3c(cccc13)/C(=C1\Cc3cccc4c(OC)c(NS(=O)(=O)c5ccccc5)cc1c34)C2
[5]
  T/C: 95 % of control
[6]
  T/C: 91 % of control
[7]
  T/C: 92 % of control

## Nc1nc(SSc2nc(N)nc3c2ncn3C2CC(O)C(CO)O2)c2ncn(C3CC(O)C(CO)O3)c2n1 (stereo unspecified)
endpoint: mean survival time, dose: 2.3 mg/kg/injection, schedule: Q01DX009 (ip), vehicle: saline
  T/C: 152 % of control
endpoint: mean survival time, dose: 4.7 mg/kg/injection, schedule: Q01DX009 (ip), vehicle: saline
  T/C: 162 % of control
endpoint: mean survival time, dose: 18.8 mg/kg/injection, schedule: Q01DX009 (ip), vehicle: saline
  T/C: 119 % of control

## NC(=O)c1csc(C2OC(CO)CC2O)n1 (stereo unspecified)
endpoint: median survival time, dose: 37.5 mg/kg/injection, schedule: Q01DX005 (ip), vehicle: water
  T/C: 92 % of control
endpoint: median survival time, dose: 75.0 mg/kg/injection, schedule: Q01DX005 (ip), vehicle: water
  T/C: 107 % of control
endpoint: median survival time, dose: 125.0 mg/kg/injection, schedule: Q01DX005 (ip), vehicle: water
  T/C: 104 % of control
endpoint: median survival time, dose: 150.0 mg/kg/injection, schedule: Q01DX005 (ip), vehicle: water
  T/C: 102 % of control
endpoint: median survival time, dose: 250.0 mg/kg/injection, schedule: Q01DX005 (ip), vehicle: water
  T/C: 116 % of control
endpoint: median survival time, dose: 300.0 mg/kg/injection, schedule: Q01DX005 (ip), vehicle: water
  T/C: 109 % of control
endpoint: median survival time, dose: 500.0 mg/kg/injection, schedule: Q01DX005 (ip), vehicle: water
  T/C: 121 % of control

## COc1ccc(C(=O)NC[n+]2ccccc2)cc1
[8]
  T/C: 109 % of control

## CN1c2ccccc2C2CC(CC#N)CC(=O)C21 (stereo unspecified)
[9]
  T/C: 96 % of control
[10]
  T/C: 93 % of control
[11]
  T/C: 95 % of control

## C/C(=N\NC(N)=S)c1c(O)cc(C)[nH]c1=O
[1]
  T/C: 97 % of control
[2]
  T/C: 101 % of control
[3]
  T/C: 98 % of control

## CC1=C(C)C(COS(=O)(=O)c2ccc(C)cc2)C1COS(=O)(=O)c1ccc(C)cc1 (stereo unspecified)
[8]
  T/C: 97 % of control
endpoint: mean survival time, dose: 200.0 mg/kg/injection, schedule: Q04DX003 (ip), vehicle: saline
  T/C: 97 % of control
endpoint: mean survival time, dose: 400.0 mg/kg/injection, schedule: Q04DX003 (ip), vehicle: saline
  T/C: 95 % of control

## O=C(O)C1(C(=O)O)CCCCC1.[NH2-].[NH2-].[Pt+2]
endpoint: mean survival time, dose: 12.5 mg/kg/injection, schedule: Q04DX003 (ip), vehicle: suspension in saline
  T/C: 108 % of control
endpoint: mean survival time, dose: 25.0 mg/kg/injection, schedule: Q04DX003 (ip), vehicle: suspension in saline
  T/C: 122 % of control
endpoint: mean survival time, dose: 80.0 mg/kg/injection, schedule: Q04DX003 (ip), vehicle: saline
  T/C: 182 % of control
endpoint: mean survival time, dose: 100.0 mg/kg/injection, schedule: Q04DX003 (ip), vehicle: suspension in saline
  T/C: 112 % of control

## COc1cc(C2c3cc4c(cc3CC3COC(=O)C32)OCO4)cc(OC)c1O (stereo unspecified)
endpoint: mean survival time, dose: 0.5 mg/kg/injection, schedule: Q01DX009 (ip), vehicle: saline with Tween-80
  T/C: 91 % of control
endpoint: mean survival time, dose: 1.0 mg/kg/injection, schedule: Q01DX009 (ip), vehicle: saline with Tween-80
  T/C: 100 % of control
endpoint: mean survival time, dose: 2.0 mg/kg/injection, schedule: Q01DX009 (ip), vehicle: saline with Tween-80
  T/C: 112 % of control
endpoint: mean survival time, dose: 4.0 mg/kg/injection, schedule: Q01DX009 (ip), vehicle: saline with Tween-80
  T/C: 100 % of control

## NC1(CO)COC(c2ccccc2)OC1 (stereo unspecified)
endpoint: mean survival time, dose: 25.0 mg/kg/injection, schedule: Q01DX009 (ip), vehicle: saline
  T/C: 93 % of control
endpoint: mean survival time, dose: 50.0 mg/kg/injection, schedule: Q01DX009 (ip), vehicle: saline
  T/C: 96 % of control
endpoint: mean survival time, dose: 100.0 mg/kg/injection, schedule: Q01DX009 (ip), vehicle: saline
  T/C: 96 % of control

## BrCc1ccccc1C[P+](c1ccccc1)(c1ccccc1)c1ccccc1
endpoint: mean survival time, dose: 3.13 mg/kg/injection, schedule: Q01DX009 (ip), vehicle: saline sonified
  T/C: 107 % of control
endpoint: mean survival time, dose: 6.25 mg/kg/injection, schedule: Q01DX009 (ip), vehicle: saline sonified
  T/C: 96 % of control
endpoint: mean survival time, dose: 12.5 mg/kg/injection, schedule: Q04DX003 (ip), vehicle: saline sonified
  T/C: 107 % of control
endpoint: mean survival time, dose: 25.0 mg/kg/injection, schedule: Q04DX003 (ip), vehicle: saline sonified
  T/C: 100 % of control

## Cc1ccc(C(OS(=O)(=O)c2ccc(C)cc2)C(F)(F)F)cc1 (stereo unspecified)
[9]
  T/C: 104 % of control
[5]
  T/C: 107 % of control
[10]
  T/C: 108 % of control
[6]
  T/C: 101 % of control
[11]
  T/C: 106 % of control
[7]
  T/C: 98 % of control

## C1CCC(CCC2CCCC[N-]2)[N-]C1.C1CCC(CCC2CCCC[N-]2)[N-]C1.[Ni+2].[O-][Cl+3]([O-])([O-])O (stereo unspecified)
endpoint: mean survival time, dose: 5.0 mg/kg/injection, schedule: Q01DX009 (ip), vehicle: saline
  T/C: 103 % of control
endpoint: mean survival time, dose: 10.0 mg/kg/injection, schedule: Q01DX009 (ip), vehicle: saline
  T/C: 104 % of control
endpoint: mean survival time, dose: 12.5 mg/kg/injection, schedule: Q01DX001 (ip), vehicle: saline with Tween-80
  T/C: 90 % of control
endpoint: mean survival time, dose: 12.5 mg/kg/injection, schedule: Q04DX002 (ip), vehicle: saline
  T/C: 95 % of control
endpoint: mean survival time, dose: 12.5 mg/kg/injection, schedule: Q04DX003 (ip), vehicle: saline
  T/C: 104 % of control
endpoint: mean survival time, dose: 20.0 mg/kg/injection, schedule: Q01DX009 (ip), vehicle: saline
  T/C: 103 % of control
endpoint: mean survival time, dose: 25.0 mg/kg/injection, schedule: Q01DX001 (ip), vehicle: saline
  T/C: 102 % of control
endpoint: mean survival time, dose: 25.0 mg/kg/injection, schedule: Q04DX002 (ip), vehicle: saline
  T/C: 98 % of control
endpoint: mean survival time, dose: 25.0 mg/kg/injection, schedule: Q04DX003 (ip), vehicle: saline
  T/C: 108 % of control
endpoint: mean survival time, dose: 40.0 mg/kg/injection, schedule: Q01DX009 (ip), vehicle: saline
  T/C: 109 % of control
endpoint: mean survival time, dose: 50.0 mg/kg/injection, schedule: Q01DX001 (ip), vehicle: saline
  T/C: 102 % of control
endpoint: mean survival time, dose: 50.0 mg/kg/injection, schedule: Q04DX002 (ip), vehicle: saline
  T/C: 98 % of control
endpoint: mean survival time, dose: 50.0 mg/kg/injection, schedule: Q04DX003 (ip), vehicle: saline
  T/C: 102 % of control
[4]
  T/C: 101 % of control
[1]
  T/C: 102 % of control
endpoint: mean survival time, dose: 100.0 mg/kg/injection, schedule: Q04DX002 (ip), vehicle: saline
  T/C: 102 % of control
[8]
  T/C: 104 % of control

## FC(F)(F)c1cccc(NC2=NCCO2)c1
[9]
  T/C: 92 % of control
[10]
  T/C: 93 % of control
[11]
  T/C: 91 % of control

## Cn1sc2ccccc2c1=S
[5]
  T/C: 101 % of control
[6]
  T/C: 96 % of control
[7]
  T/C: 95 % of control
